These results are taken from patent publication US10259753B2, “Multifunctional organic agricultural fertilizer composition and process for preparation thereof” (priority 2014, dated 2019).

Data set [1] in a line: pH and color of glyphosate spray water treated with the composition. In kind it is physicochemical. Conditions: water treated with composition at 2 to 3 ml per ltr; control: plain water. Here is the method:
(§1) The water was treated with composition of example 3 and 5 as given in Table 15 at 2 to 3 ml per ltr of water till the pH of 4.5 and 4.2 is achieved as indicated by the color achieved to the water.

Another data set relates to weeds. Description: Control of weeds in cotton crop by glyphosate spray in water treated with the composition. Type of data set: in vivo. The following applies: Glyfosate 750 ml/acre with composition, control: 1 Ltr/acre with plain water. The protocol:
The cotton crop was treated with glyphosate at 1 Ltr per acre with plain water and Glyfosate used with the composition of Example 3 and 5 was used at 750 ml/acre.
as §1

The subject of a further data set is Pest worms. Kind of data set: Control of pest worms on tomato by Cypermethrin 25% EC in well water treated with the composition. In kind it is in vivo. Conditions: Cypermethrin 125 ml/acre with composition, control: 150 ml/acre in normal well water. The protocol: The following compositions are used in the treatment for Tomato:
(§2) Tomato crop infested with worms was sprayed with Cypermethrin 25% EC using normal well water and well water treated with the compositions of the invention. 4000 Sq. meter was treated only with water and another 8000 square meter plot was treated with composition of the invention as per Example No. 3 or 5. In both the plots, pest is controlled. In treated plot, the pest control is achieved at 95% and with 15% saving in the dosage of cypermethrin pesticide.

The nature of data set [2]: pH and color of cypermethrin spray water treated with the composition. In kind it is physicochemical. Conditions: composition 2 Ltr per 8000 sq. meter; control: normal well water. The protocol:
as §2

Data set [3] is described as follows: Urea volatilization: loss of soil-applied urea, from nitrogen content of soil samples. Conditions: 50 Kg urea in soil; 1 ltr of composition where used. The protocol:
Experiment was carried out to check the effect of compositions of present invention to see the efficiency to prevent volatilization in urea.
It is noted that the pH of urea in soil in treatment T2 and T3 was adjusted to 4.5 to 5.0 due to addition of composition of invention.
The soil samples were collected from various selected locations wherever urea is applied and then checked for nitrogen content in laboratory after 0, 2, 4, 6, 8 and 10 days of urea application.

Turning to `O=C(O)CNCP(=O)(O)O` [Glyfosate, glyphosate], in data set [1], the “pH of Glyfosate spray solution” value is given as 7.65. In the data set on weeds, this compound returned a Control of weeds of 72%. As for `CC1(C)C(C=C(Cl)Cl)C1C(=O)OC(C#N)c1cccc(Oc2ccccc2)c1` (centres unmarked) [Cypermethrin], in the data set on Pest worms, the “Control of Pest worms” value was 78%. Besides, the “pH of Cypermethrin Spray solution” value in data set [2] is given as 7.20. `NC(N)=O` [Plain Urea, Urea]: in data set [3], the “pH achieved of urea in soil” value is on record as “pH = 7.5”.
